# Patent US9598716B2, “Destructible surfactants and uses thereof” (Waters Technologies Corporation, priority 2002, dated 2017)
# Tests used:
# trypsin = test: Trypsin activity assay (rate of hydrolysis of BAEE to BA, UV); type: biochemical; conditions: for Trypsin activity (%): 0.5 μg of trypsin in 50 mM ammonium bicarbonate, pH 7.9, no additive = 100
# Experimental: Trypsin activity measurements were carried out by introducing 1 μg/ml of trypsin to 0.25 mM N-α-benzoyl-L-arginine ethyl ester (BAEE, pH 7.9) at room temperature. Changes in trypsin activity were plotted by measuring the rate of hydrolysis of BAEE to a UV active product, BA, at A 252 nm.
# Lys-C = biological target: T1, Lys-C (Lysobacter enzymogenes, UniProt Q7M135); test: Comparative digestion of myoglobin with Lys-C; type: biochemical; conditions: with ALS, no observable digestion without ALS
# T1 construct: purchased Roche Diagnostics
# T1 sequence (Q7M135 whole entry): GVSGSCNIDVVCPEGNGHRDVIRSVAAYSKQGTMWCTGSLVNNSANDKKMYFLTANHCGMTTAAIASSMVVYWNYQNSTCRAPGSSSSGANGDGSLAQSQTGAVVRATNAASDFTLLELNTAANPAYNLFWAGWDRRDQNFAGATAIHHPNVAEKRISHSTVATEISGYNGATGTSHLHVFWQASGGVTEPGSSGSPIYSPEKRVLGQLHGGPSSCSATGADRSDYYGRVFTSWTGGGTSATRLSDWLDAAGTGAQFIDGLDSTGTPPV
# Experimental: (§1) Proteins (2-20 μM), indicated in Table 2, were solubilized in 50 mM NH4HCO3 or 0.1-0.25% (w/w) ALS before tryptic digestion. The trypsin to protein ratio used was 1-2%. The protein (˜17 μM) was solubilized with 8M urea or 0.25% ALS. After tryptic digestion, ALS was destroyed rapidly by addition of strong acid such as HCl or TFA. The by-products were removed by centrifugation prior to MS analysis. Protein digests were mass analyzed either by a MALDI.TOF mass spectrometer (M@LDI™ LR, Micromass UK Ltd) or separated by RP-HPLC (CapLC®, Waters Corporation) then interfaced to an orthogonal acceleration TOF mass spectrometer (LCT™, Micromass UK Ltd) via an electrospray ionization source.
# (§2) Myoglobin comparative digestion was performed as in Example 3 (in the presence and absence of ALS), with the exchange of the following proteases for trypsin: • A. Asp-N (FIG. 4A) • B. Lys-C (FIG. 4B) • C. Glu-C (FIG. 4C) Digestions were performed for about 50 minutes. The enzymes were purchased from Roche Diagnostics. Analysis is shown in FIGS. 4A-4C, as indicated above. In each case, when no ALS was in the digestion solution, no observable digestion took place. However, with ALS, within about 50 minutes, the entire protein was consumed.
# Glu-C = biological target: T2, Glu-C (Staphylococcus aureus, UniProt P0C1U8); test: Comparative digestion of myoglobin with Glu-C; type: biochemical; conditions: with ALS, no observable digestion without ALS
# T2 construct: purchased Roche Diagnostics
# T2 sequence (P0C1U8 69-336): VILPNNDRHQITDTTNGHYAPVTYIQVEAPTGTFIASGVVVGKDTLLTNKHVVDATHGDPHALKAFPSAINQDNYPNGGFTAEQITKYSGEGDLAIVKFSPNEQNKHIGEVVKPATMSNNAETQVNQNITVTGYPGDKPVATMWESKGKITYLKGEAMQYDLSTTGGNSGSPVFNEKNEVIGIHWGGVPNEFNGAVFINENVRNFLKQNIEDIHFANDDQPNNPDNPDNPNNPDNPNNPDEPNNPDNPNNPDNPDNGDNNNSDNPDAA
# Experimental: as §1, §2
# [1] = biological target: T3, horse skeletal muscle myoglobin (Equus caballus, UniProt P68082); test: Mass spectrometric detection of myoglobin treated with ALS or SDS (electrospray); conditions: 5 μM myoglobin with 0.1% surfactant; ALS degraded in 10% acetic acid for 16 hours
# T3 construct: horse skeletal muscle myoglobin (Sigma. P/N M0630); purchased Sigma M0630; host or cells: horse skeletal muscle
# T3 sequence (P68082 whole entry): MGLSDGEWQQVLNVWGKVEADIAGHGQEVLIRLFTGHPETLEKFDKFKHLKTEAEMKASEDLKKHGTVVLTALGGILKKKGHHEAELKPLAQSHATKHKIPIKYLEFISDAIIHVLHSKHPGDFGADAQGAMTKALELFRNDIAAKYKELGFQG
# Experimental: Mass spectrometric detection was performed on myoglobin using a Platform LC (Micromass, Manchester, UK) with constant infusion. A stock solution of 50 μM horse skeletal muscle myoglobin (Sigma. P/N M0630) was prepared in 50/50 20 mM ammonium acetate, pH 5.1/acetonitrile (v/v). A stock solution of 1% SDS and 1% ALS were also prepared in both 50/50 ammonium acetate/acetonitrile, and 40/40/10 ammonium acetate/acetonitrile/glacial acetic acid. The surfactant stock solutions were both prepared fresh, and allowed to sit for at least 16 hours. To 100 μL of each of the surfactant stock solutions was added 100 μL of myoglobin stock and 800 μL 50/50 ammonium acetate/acetonitrile. Each solution was then drawn into a 1 mL syringe and placed in a syringe pump (Harvard Instruments). The solution was infused into the mass spectrometer at a flow rate of 20 μL/min. Mass spectrometer settings were as follows:
# Gas flow rate: 340 L/h; Source temperature: 100° C., Capillary voltage: 3.46 kV; Cone voltage: 25 V; Ion energy: 0.6; Scan rate: 3.0 sec/scan; Scan range: 250-1600 amu.
# [2] = pH 7
# Description: After the chemical reaction proceeds, the surfactant of the present invention involved in enhancing the chemical reaction can be degraded, e.g., by contact with an acidic solution.
Molecule,Trypsin activity (%) (trypsin; additive at 0.1%),Trypsin activity (%) (trypsin; additive at 0.5%),Myoglobin signal in electrospray mass spectrum [1],Trypsin activity (%) (trypsin; additive at 50%),other results
"sodium 4-[(2-methyl-2 undecyl-1,3-dioxolan-4-yl)methyl]-1-propanesulfonate [ALS]",99,87,strong myoglobin signal,,Effect on trypsin activity (in words) (trypsin; ALS added to the trypsin solution containing SDS): increase in trypsin activity; Time until the entire protein (myoglobin) was consumed (Lys-C): ≤ 50 min; Time until the entire protein (myoglobin) was consumed (Glu-C): ≤ 50 min; Stability of the surfactant [2]: stable
CC#N [Acetonitrile],,,,92,
"CCCCCCCCCCCCOS(=O)(=O)[O-].[Na+] [SDS, sodium dodecylsulfate]",20,1,no signals due to myoglobin are observed,,Effect on trypsin activity (in words) (trypsin; each of the percentages examined): inhibits trypsin activity
CO [Methanol],,,,31,
NC(N)=O [Urea],,,,,Trypsin activity (%) (trypsin; additive at 2M): 85%; Trypsin activity (%) (trypsin; additive at 4M): 71%
